# Earlier results in patent US11446274B2, “Use of dianhydrogalactitol or derivatives or analogs thereof for treatment of pediatric central nervous system malignancies” (DelMar Pharmaceuticals, Inc., priority 2015, dated 2022).
# Read-outs that look alike come from different tables or passages of the source.
# Key:
# [1] = target: glycogen synthase kinase-3β (GSK-3β) (Homo sapiens, UniProt P49841); conditions: cited from earlier work
# [2] = test system: cells that are either MGMT-positive or MGMT-negative or MMR-proficient or MMR-deficient; conditions: cited from earlier work
# glycogen synthase kinase-3β (GSK-3β), sequence (P49841 whole entry, species assumed): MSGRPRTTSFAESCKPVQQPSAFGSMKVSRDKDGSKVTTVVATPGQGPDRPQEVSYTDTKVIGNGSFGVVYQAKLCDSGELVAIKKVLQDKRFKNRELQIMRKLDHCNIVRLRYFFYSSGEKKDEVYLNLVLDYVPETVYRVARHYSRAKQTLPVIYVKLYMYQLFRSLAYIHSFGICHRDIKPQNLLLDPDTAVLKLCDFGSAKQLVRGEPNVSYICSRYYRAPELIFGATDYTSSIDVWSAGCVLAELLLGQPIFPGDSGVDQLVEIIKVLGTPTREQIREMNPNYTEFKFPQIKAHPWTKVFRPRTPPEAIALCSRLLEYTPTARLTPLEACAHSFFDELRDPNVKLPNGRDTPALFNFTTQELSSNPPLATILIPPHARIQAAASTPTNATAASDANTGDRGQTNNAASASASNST
structure (smiles),measurement,setting,value
"CN1C(=O)/C(=C2/C(=O)Nc3ccccc32)c2ccccc21 [Meisoindigo, meisoindigo]",concentration for inhibition of GSK-3β,[1],5 to 50 nM
N.N.[Cl][Pt][Cl] [cisplatin],sensitivity,"[2]; MGMT Negative, MMR-Deficient",Resistant
same,sensitivity,"[2]; MGMT Negative, MMR-Proficient",Sensitive
same,sensitivity,"[2]; MGMT Positive, MMR-Deficient",Resistant
same,sensitivity,"[2]; MGMT Positive, MMR-Proficient",Sensitive
